Results taken from PubChem BioAssay (NCI).
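How tested: cells in 96-well plates exposed to compound for 48 hours at five concentrations. At the TGI there is no net growth.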

Assays:
Experiment in all cases: inhibition of tumour cell growth, NCI panel, 48 h
[1] = test system: A549 NSCLC
[2] = test system: BT-549 breast
[3] = test system: CAKI-1 renal
[4] = test system: HOP-92 NSCLC
[5] = test system: HS 578T breast
[6] = test system: IGROV1 ovarian
[7] = test system: KM12 colon
[8] = test system: MDA-MB-435
[9] = test system: OVCAR-3 ovarian
[10] = test system: OVCAR-4 ovarian
[11] = test system: OVCAR-5 ovarian
[12] = test system: OVCAR-8 ovarian
[13] = test system: SF-268 CNS
[14] = test system: SK-OV-3 ovarian
[15] = test system: SN12C renal
[16] = test system: SNB-19 CNS
[17] = test system: UACC-62 melanoma
[18] = test system: UO-31 renal

C#CCOC(=O)C(N)CC(N)=O (centres undefined)
TGI [1]: > 100 µM
TGI [2]: > 100 µM
TGI [3]: > 100 µM
TGI [4]: > 100 µM
TGI [5]: > 100 µM
TGI [6]: > 100 µM
TGI [7]: > 100 µM
TGI [8]: > 100 µM
TGI [9]: > 100 µM
TGI [10]: > 100 µM
TGI [11]: > 100 µM
TGI [12]: > 100 µM
TGI [13]: > 100 µM
TGI [14]: > 100 µM
TGI [15]: > 100 µM
TGI [16]: > 100 µM
TGI [17]: > 100 µM
TGI [18]: > 100 µM

O=C1CSCC(=O)Nc2ccccc2N1
TGI [1]: > 100 µM
TGI [2]: > 100 µM
TGI [3]: > 100 µM
TGI [4]: > 100 µM
TGI [5]: > 100 µM
TGI [6]: > 100 µM
TGI [7]: > 100 µM
TGI [8]: > 100 µM
TGI [9]: > 100 µM
TGI [10]: > 100 µM
TGI [11]: > 100 µM
TGI [12]: > 100 µM
TGI [13]: > 100 µM
TGI [14]: > 100 µM
TGI [15]: > 100 µM
TGI [16]: > 100 µM
TGI [17]: > 100 µM
TGI [18]: > 100 µM

COC(=O)c1c(O)c(C#N)c2[nH]c3ccccc3n2c1=O
TGI [1]: > 100 µM
TGI [2]: > 100 µM
TGI [3]: > 100 µM
TGI [4]: > 100 µM
TGI [5]: > 100 µM
TGI [6]: > 100 µM
TGI [7]: > 100 µM
TGI [8]: > 100 µM
TGI [9]: > 100 µM
TGI [10]: > 100 µM
TGI [11]: > 100 µM
TGI [12]: > 100 µM
TGI [13]: > 100 µM
TGI [14]: > 100 µM
TGI [15]: > 100 µM
TGI [16]: > 100 µM
TGI [17]: > 100 µM
TGI [18]: > 100 µM

O=C1c2ccccc2-c2nnc3c(c21)Cc1ccccc1C3
TGI [1]: > 10 µM
TGI [2]: > 10 µM
TGI [3]: > 10 µM
TGI [4]: > 10 µM
TGI [5]: > 10 µM
TGI [6]: > 10 µM
TGI [7]: > 10 µM
TGI [8]: > 10 µM
TGI [9]: > 10 µM
TGI [10]: > 10 µM
TGI [11]: > 10 µM
TGI [12]: > 10 µM
TGI [13]: > 10 µM
TGI [14]: > 10 µM
TGI [15]: > 10 µM
TGI [16]: > 10 µM
TGI [17]: > 10 µM
TGI [18]: > 10 µM

CC(C#N)(c1ccccc1)N(CCc1ccccc1)C(=O)Oc1ccccc1 (centres undefined)
TGI [1]: > 100 µM
TGI [2]: > 100 µM
TGI [3]: > 100 µM
TGI [4]: 65 µM
TGI [5]: > 100 µM
TGI [6]: > 100 µM
TGI [7]: > 100 µM
TGI [8]: > 100 µM
TGI [9]: > 100 µM
TGI [10]: > 100 µM
TGI [11]: > 100 µM
TGI [12]: > 100 µM
TGI [13]: > 100 µM
TGI [14]: > 100 µM
TGI [15]: > 100 µM
TGI [16]: > 100 µM
TGI [17]: > 100 µM
TGI [18]: > 100 µM

Cc1cccc(Nc2nc3ccccc3nc2NS(=O)(=O)c2ccc(N)cc2)c1
TGI [1]: > 100 µM
TGI [2]: > 100 µM
TGI [3]: > 100 µM
TGI [4]: > 100 µM
TGI [5]: > 100 µM
TGI [6]: > 100 µM
TGI [7]: > 100 µM
TGI [8]: > 100 µM
TGI [9]: > 100 µM
TGI [10]: 42.6 µM
TGI [11]: > 100 µM
TGI [12]: > 100 µM
TGI [13]: > 100 µM
TGI [14]: > 100 µM
TGI [15]: > 100 µM
TGI [16]: > 100 µM
TGI [17]: > 100 µM
TGI [18]: 56.6 µM

O=C1Cc2c(-c3cccs3)cc(-c3ccccc3)nc2-c2ccccc2N1
TGI [1]: > 100 µM
TGI [2]: > 100 µM
TGI [3]: > 100 µM
TGI [4]: > 100 µM
TGI [5]: 17.2 µM
TGI [6]: 71.5 µM
TGI [7]: > 100 µM
TGI [8]: > 100 µM
TGI [9]: > 100 µM
TGI [10]: > 100 µM
TGI [11]: > 100 µM
TGI [12]: 17.1 µM
TGI [13]: 56.8 µM
TGI [14]: > 100 µM
TGI [15]: > 100 µM
TGI [16]: > 100 µM
TGI [17]: > 100 µM
TGI [18]: > 100 µM

C=CC(=O)NCCC(=O)OCn1cc(F)c(=O)[nH]c1=O
TGI [1]: > 100 µM
TGI [2]: > 100 µM
TGI [3]: > 100 µM
TGI [4]: > 100 µM
TGI [5]: > 100 µM
TGI [6]: > 100 µM
TGI [7]: > 100 µM
TGI [8]: > 100 µM
TGI [9]: > 100 µM
TGI [10]: 40.3 µM
TGI [11]: > 100 µM
TGI [12]: > 100 µM
TGI [13]: > 100 µM
TGI [14]: > 100 µM
TGI [15]: 15.3 µM
TGI [16]: > 100 µM
TGI [17]: > 100 µM
TGI [18]: > 100 µM

CCCCNC(=O)OCCN=c1c2ccccc2ccc2ccccc12
TGI [1]: > 100 µM
TGI [2]: > 100 µM
TGI [3]: > 100 µM
TGI [4]: > 100 µM
TGI [5]: > 100 µM
TGI [6]: > 100 µM
TGI [7]: > 100 µM
TGI [8]: > 100 µM
TGI [9]: > 100 µM
TGI [10]: > 100 µM
TGI [11]: > 100 µM
TGI [12]: > 100 µM
TGI [13]: > 100 µM
TGI [14]: > 100 µM
TGI [15]: > 100 µM
TGI [16]: > 100 µM
TGI [17]: > 100 µM
TGI [18]: > 100 µM

COc1cc([C@@H]2c3cc4c(cc3[C@H](OC3OC5COC(c6ccco6)OC5C(O)C3O)C3COC(=O)[C@@H]32)OCO4)cc(OC)c1OC (some centres undefined)
TGI [1]: > 100 µM
TGI [2]: 85.7 µM
TGI [3]: > 69.9 µM
TGI [4]: > 100 µM
TGI [5]: > 100 µM
TGI [6]: > 52.7 µM
TGI [7]: > 100 µM
TGI [8]: > 100 µM
TGI [9]: > 24.6 µM
TGI [10]: > 100 µM
TGI [11]: > 100 µM
TGI [12]: > 100 µM
TGI [13]: > 100 µM
TGI [14]: > 100 µM
TGI [16]: > 100 µM
TGI [17]: > 100 µM
TGI [18]: > 100 µM
